Experiments:
[1] = tested on: phosphorylated JNK; test: JNK phosphorylation (Western blotting) in human hepatoma cell line HepG2; format: cell-based; details: acetaminophen together with TNP, FIG. 8
Procedure: (§1) The regulation of response against stress caused by acetaminophen in liver cells according to the treatment of TNP was investigated.
Particularly, the human hepatoma cell line HepG2 treated with acetaminophen and TNP by the same manner as described in Experimental Example 3 was obtained. Cell extract was prepared for protein assay. Then, SDS-PAGE and Western blotting were performed by the same manner as described in Experimental Example 5.

[2] = tested on: human hepatoma cell line HepG2; test: Acetaminophen caused apoptosis (cell survival rate) in human hepatoma cell line HepG2; format: cell-based; details: acetaminophen 25 mM together with TNP 100 μM, 18 hours, FIGS. 4 and 5
Procedure: The human hepatoma cell line HepG2 was distributed in a 6 well plate precoated with gelatin at the density of 1×10^6 cells/ml, followed by culture for 24 hours for cell adhesion. The culture medium herein was DMEM (Biowest) supplemented with 10% FBS, 10 nM dexamethasone, 10 nM insulin, and penicillin/streptomycin (100 μg/ml). The cells were cultured in a 37° C. incubator under the control of temperature and humidity with supplying a mixed gas containing CO2 by 5%.
The changes in acetaminophen caused apoptosis according to the treatment of TNP were investigated in the human hepatoma cell line HepG2 cultured by the same manner as described in Example 3.
Particularly, the human hepatoma cell line HepG2 was distributed in a 6 well plate at the concentration of 90% each well. The cell survival rate was calculated by the same manner as described in Experimental Example 1. All the statistic treatments in this invention were presented as mean±SD and the statistic analysis was performed by using Student's t-test. The maximum limits of significance were determined as p<0.05.

[3] = tested on: male C57BL/6J mouse; test: Individual survival rate in acetaminophen treated mouse model; format: in vivo; details: acetaminophen 500 mg/kg orally, then TNP 10 mg/kg intraperitoneal, FIG. 9
Procedure: The inventors investigated whether or not TNP had the activity of protecting liver cells from the toxicity caused by acetaminophen in an animal model.
Particularly, the male C57BL/6J mouse at 8˜10 weeks was orally administered with 500 mg/kg of acetaminophen (Sigma) dissolved in water. Then, the mouse was administered with 10 mg/kg of TNP (Calbiocham) dissolved in olive oil (Sigma) via intraperitoneal injection, followed by investigation of individual survival rate. Statistical analysis was performed by Kaplan-Meier survival analysis, and the maximum limit of the significance was determined as p<0.05.

[4] = tested on: phosphorylated JNK; test: JNK phosphorylation (Western blotting) in mouse derived liver cells; format: cell-based; details: acetaminophen together with TNP, FIG. 7
Procedure: as §1
Particularly, the mouse derived liver cells treated with acetaminophen and TNP by the same manner as described in Experimental Example 2 were obtained. Cell extract was prepared for protein assay. Then, SDS-PAGE and Western blotting were performed. The cells were lysed in 10 ml of SDS buffer (50 mM Tris-HCl, 1% IGEPAL CA-630, 0.25% deoxycholic acid, 150 mM NaCl, 1 mM ethylene-diamine tetra acetic acid, 1 mM NaF, and 0.1% sodium dodecyl sulfate, pH 7.4) containing protease inhibitor cocktail (Complete Mini, Roche, Germany). The cell lysate was placed in ice for 20 minutes, followed by centrifugation at 4° C., at 13000 rpm, for 10 minutes. Upon completion of the centrifugation, the protein in the supernatant was quantified (Bio-Rad Laboratories, USA). 50 μg of the protein was loaded for SDS-PAGE (SDS-polyacrylamide gel electrophoresis). The electrophoresed protein was transferred onto Immobilon-P transfer membrane (Millipore Corporate, USA) by using electroblotting. The membrane was then loaded in TBS (Tris-buffered saline) containing 0.1% Tween 20 and 10% milk powder, followed by blocking for 1 hour. […] The activity was analyzed by using Image J software (version 1.37, NIH, USA).

[5] = tested on: mouse derived liver cells; test: Acetaminophen caused apoptosis (cell survival rate) in mouse derived liver cells; format: cell-based; details: acetaminophen 25 mM together with TNP 100 μM, 18 hours, FIG. 3
Source text: Particularly, the male C57BL/6J mouse at 10˜12 weeks was anesthetized by administrating Avertin via intraperitoneal injection, and the abdomen was opened. 24 gauge catheter was inserted in the portal vein to perfuse with a perfusion solution (1.42 M Nacl, 0.067 M Kcl, 0.1 M HEPES PH 7.4, 0.05 M EGTA). Then, a digestion solution comprising collagenase (Worthington, USA) was circulated. After the liver cells were digested, the mesenteric membrane was peeled off to separate liver cells, followed by filtering with nylon mesh. The filtrate was centrifuged at 100×g for 3 minutes. The supernatant was discarded and the precipitated liver cells were suspended in HBSS buffer (Hanks' Balanced salt solution, WelGene), followed by centrifugation. The precipitated liver cells were centrifuged at 2400 rpm for 10 minutes in Percol solution (autoclaved percoll (Sigma), 10×PBS, 1 M HEPES pH 7.4). The supernatant was discarded and the precipitated liver cells were suspended in HBSS buffer (Hanks' Balanced salt solution, WelGene), followed by centrifugation again at 100×g. […]
Particularly, the mouse derived liver cells were distributed in a 6 well plate at the concentration of 100% each well. The cell survival rate was calculated by the same manner as described in Experimental Example 1. […] The maximum limits of significance were determined as p<0.05.

[6] = tested on: phosphorylated JNK; test: Stress signaling activity (JNK phosphorylation) in liver tissue of acetaminophen treated mouse model; format: in vivo; details: acetaminophen 500 mg/kg orally, TNP 10 mg/kg intraperitoneal, 6 hours later, FIG. 12
Procedure: (§2) To investigate the preventing effect of TNP on the acetaminophen caused liver toxicity in the animal model of Example 7, tissues, blood, and JNK phosphorylation were analyzed.
(§3) Particularly, acetaminophen and TNP were injected to the male mouse by the same manner as described in Example 7. 6 hours later, the liver was extracted from the mouse, followed by histopathological analysis, blood analysis (AST and ALT), and stress signaling activity (JNK) analysis. For the blood analysis, a blood sample was obtained from orbit of the mouse. The blood sample was centrifuged at 13,000 rpm for 10 minutes to obtain serum. AST and ALT analysis was performed (Idexx VetTest 8008 chemistry analyzer) with 100 μl of the serum obtained above. To investigate the stress signaling activity, the liver tissues extracted from the liver taken out above were loaded in RIPA medium (1 M tris-Cl (PH7.4), 1 M NaCl, 0.5 M EDTA, NP-40, 10% sodium deoxycholate, 10% SDS), followed by lysis with a homogenizer. After the centrifugation, the supernatant was collected, followed by SDS-PAGE and Western blotting. The phosphorylated JNK and the total JNK were quantified by Western blotting by the same manner as described in Example 5.

[7] = tested on: human embryonic stem cell-derived liver cells; test: Acetaminophen caused apoptosis (cell survival rate, trypan blue) in human embryonic stem cell-derived liver cells; format: cell-based; details: hESC-derived liver cells; acetaminophen 25 mM together with TNP 100 μM, 18 hours; FIG. 2
Procedure: Particularly, CHA-hESC cell line was cultured in the conditioned medium with feeder-free system for 3 days to be confluent. Upon completion of the culture, the hESC cells were cultured in RPMI-1640 (Hyclone, USA) supplemented with 50 ng/ml of Activin A (Peprotech, USA) for 5 days to induce the differentiation. The differentiated cells were cultured in the hepatocyte culture medium (HCM; Lonza, USA) supplemented with 30 ng/ml of fibroblast growth factor 4 (Peprotech) and 20 ng/ml of bone morphogenetic protein 2 (BMP2; Peprotech) for 5 days. Then, the cells were further cultured in the hepatocyte culture medium supplemented with 20 ng/ml of hepatocyte growth factor (HGF; Peprotech) for another 5 days to induce the differentiation of hESC into hepatocytes. The differentiated hepatocytes were cultured in the hepatocyte culture medium supplemented with 10 ng/ml of oncostatin M (R&D Systems, USA) and 0.1 μM of dexamethasone (Sigma) for 5 days to induce maturation of the hepatocytes. At last, the mature hepatocytes were obtained. […]
Particularly, the liver cells on the 19th day from the differentiation from human stem cells were distributed in a 6 well plate at the concentration of 90% each well. […] This experiment was performed in triplicate and the cell survival rate was analyzed based on the results. […] The maximum limits of significance were determined as p<0.05.

[8] = tested on: male C57BL/6J mouse; test: Liver toxicity in acetaminophen treated mouse model: histopathological analysis and blood analysis (AST and ALT); format: in vivo; details: acetaminophen 500 mg/kg orally, TNP 10 mg/kg intraperitoneal, 6 hours later
Procedure: as §2, §3

[9] = tested on: reduced glutathione (GSH) in mouse derived liver cells; test: Intracellular reduced glutathione (GSH) level, GSH-Glo Glutathione Assay, in mouse derived liver cells; format: cell-based; details: FIG. 6
Procedure: The metabolizing activity of liver cells on acetaminophen according to the treatment of TNP was investigated.
Particularly, the level of the reduced glutathione (GSH) in the mouse derived liver cells treated with acetaminophen and TNP by the same manner as described in Experimental Example 2 was measured. The measurement of the reduced glutathione was performed by using GSH-Glo Glutathione Assay kit (Promega) with Tristar2 LB 942 plate reader.

O=[N+]([O-])c1ccc(CNc2nc(NCc3cccc(C(F)(F)F)c3)nc3[nH]cnc23)cc1 [TNP, N2-(m-Trifluorobenzyl), N6-(p-nitrobenzyl)purine]
phosphorylated JNK signal increased by the acetaminophen caused stress response [1]: significantly suppressed
apoptosis of liver cells caused by acetaminophen [2]: significantly suppressed
individual survival rate [3]: effect of protecting a mouse from the acetaminophen caused liver toxicity
phosphorylated JNK signal increased by the acetaminophen caused stress response [4]: significantly suppressed
apoptosis of liver cells caused by acetaminophen [5]: significantly suppressed
increase of phosphorylated JNK signal in liver tissue [6]: significantly suppressed
apoptosis of liver cells caused by acetaminophen [7]: significantly suppressed
level of ALT (liver toxicity serum index) ([8]; mouse serum, FIG. 11): significantly decreased
level of AST (liver toxicity serum index) ([8]; mouse serum, FIG. 11): significantly decreased
necrosis in liver tissue (histopathological analysis) ([8]; mouse, FIG. 10): only minor necrosis
decrease of the reduced glutathione caused by acetaminophen ([9]; acetaminophen together with TNP): back to increase
reduced glutathione concentration in the liver cells ([9]; treatment of TNP alone): increased
